Among the data in patent US6329344A, “Derivatives of monosaccharides as cell adhesion inhibitors” (Ranbaxy Laboratories Limited, priority 1998, dated 2001) are ED30, ED40 and EC30 (ED30, dose for 30% inhibition of ear swelling) values, retold here.

Where two headings read alike, the source gives them in different places.

The assay deals with murine contact hypersensitivity response. Briefly: Mouse Ear Swelling Test (MEST), DNFB contact hypersensitivity. The class given is in vivo, Swiss albino mice. The conditions noted are these: ear thickness 24 hours after challenge; for ED30 / ED40: Mus musculus, 24 h; for ED30: read-out: EC30 (ED30, dose for 30% inhibition of ear swelling); for ED40: read-out: EC40 (ED40, dose for 40% inhibition of ear swelling). The text has this:
The in vitro cell adhesion assay was used to measure the effect of a test compound on adhesion of human T cell line (Jurkat J6) on surfaces coated with VCAM-1. The MEST assesses the ability of the experimental compounds to inhibit the delayed-type hypersensitivity response of sensitized mice against a potent allergen, 1,4-Dinitrofluoro benzene. These two assays are appropriate for screening compounds for two different activities. The cell adhesion assay determines the effect of compounds on the interaction of VLA4 molecules expressed on the surface of Jurkat cells with its counter-receptor, VCAM-1, immobilized on microtitre plate surface. Conversely, the MEST determines the potency of compounds to inhibit the murine contact hypersensitivity response induced by exposing mice to the potent allergen 1,4-Dinitrofluoro benzene. The Chisolm et al method was used in this respect (Chisolm et al, Eur. J. Immunology 1993;23:682).
We tested the efficacy of compounds synthesized in this invention to inhibit the act hypersensitivity in Swiss mice as follows:
20 to 25 gm female Swiss albino mice (animals procured from National Institute of Immunology, New Delhi, India and maintained in our Experimental Animal Facility) were anesthetized with anesthetic ether (Sisco Research Laboratories Ltd., India). A 2 cm^2 patch of dorsal skin was shaved using a hair clipper. The exposed skin was then dermabraded using No. 100 sandpaper gently. 25 μL freshly prepared 0.5% 1,4-Dinitrofluoro benzene in 4:1 (v/v) acetone:olive oil solution was then topically applied onto the dermabraded skin to encourage a mild inflammation reaction. Twenty-four hours after the initial sensitization, the mice were again sensitized with 25 μL freshly prepared 0.5% 1,4-Dinitrofluor benzene (DNFB) in 4:1 (v/v) acetone:olive oil solution on the same dermabraded site as before. The second sensitization was performed while restraining the non-anesthetized, conscious mouse.
2. Administration of Compound
On day 5, compounds were dissolved in an aqueous solvent (pyrogen-free water, alkaline water, or ethanol) and further diluted in pyrogen-free water to prepare appropriate doses. Solutions were administered by intravenous, subcutaneous or oral route.
3. Challenge and Measurement of Ear Thickness
Two hours following administration of the compounds, the animals were physically restrained and painted with 25 μL of freshly prepared 0.5% DNFB in 4:1 (v/v) acetone:olive oil solution on the right ear. The thickness of the right ear was measured using a Series 300 Odimeter (Dyer Gauge Inc, USA) at the time of challenge (0 hr), 4 hours and 24 hours after challenge while physically restraining the non-anesthetized mice. In a separate experiment, it was ascertained that 4:1 (v/v) acetone:olive oil vehicle has no effect on ear thickness.
4. Determination of Effective Concentration of the Compounds
Inhibition of the ear swelling was judged by comparison of treated groups with their negative control groups. Percent inhibition was calculated as: [formula]
STEST =Mean ear thickness in test group at 24 hours after challenge
STEST-zero =Mean ear thickness in test group at zero hours after challenge
SNC =Mean ear thickness in negative control group at 24 hours after challenge
SNC-zero =Mean ear thickness in negative control group at zero hours after challenge
The percentage inhibition of swelling obtained by the above calculation was plotted against log dose using the Graph Pad Prizm software and, from this plot, the log dose corresponding to 30% inhibition (log ED30) and 40% (log ED40) inhibition was determined.
Aqueous solutions of appropriate doses (1 μg/kg to 100 mg/kg) were administered by intravenous route 2 hrs before challenge and their effect on ear thickness was measured. Concentrations inhibiting ear swelling by 30% and 40% were determined and expressed as amount (ng, μg or mg) per Kg body weight.

The mark [1] stands for this setting: I.V., amount per Kg body weight.
The mark [2] stands for this setting: S.C., amount per Kg body weight.

For the compound `CCCCCCCCCCCCO[C@H]1[C@H]2OC(C)(C)O[C@H]2O[C@@H]1CNC(=O)Nc1ccc(CC(=O)O)cc1` [Compound 76, 1,2-O-isopropylidene-3-O-dodecyl-5-deoxy-5-N-{[4-(2-hydroxy-2-oxoethyl)phenyl]aminocarbonylamino}-α,D-ribofuranose], for the setting “Oral”, the ED30 amounted to 0.00029 mg/kg and the ED40 is 0.0813 mg/kg.

For `CCCCCCCCCCCCO[C@@H]1[C@H]2OC(C)(C)O[C@H]2O[C@@H]1CNC(=O)Nc1ccc(CC(=O)O)cc1` [Compound 53, 1,2-O-isopropylidene-3-O-dodecyl-5-deoxy-5-N-{[4-(2-hydroxy-2-oxoethyl)phenyl]aminocarbonylamino}-α,D-xylofuranose], the ED30 came out at 0.01 mg/kg under setting [1], 0.001 mg/kg (Oral) and 0.0005 mg/kg under setting [2]. Also, the ED40 runs as follows: under setting [1], 0.07 mg/kg; under setting [2], 0.01 mg/kg.

Consider `CC(C)C[C@H](NC(=O)[C@@]12O[C@H]3COC(C)(C)O[C@H]3[C@@H]1OC(C)(C)O2)C(=O)N[C@@H](CC(=O)O)C(=O)N[C@H](C(=O)N1CCC[C@H]1C(=O)O)C(C)C` [Compound 122, 2,3; 4,6-Di-O-isopropylidene-1-carbonyl-L-Leucyl-α,L-Aspartyl-L-Valyl-LProline-α,L-xylo-2-hexulofuranosonic acid], for which, under setting [1], the EC30 (ED30, dose for 30% inhibition of ear swelling) stood at 8 mg/kg and the ED30 was found to be 12 mg/kg.
